pIC50: −log10 of the molar value.

As a reminder, the pIC50 is the IC50 on a negative log10 scale, so that one unit is a factor of ten.

This assay addresses T1, Recombinant human DGAT2 protein (Homo sapiens, UniProt Q96PD7).
T1 construct: FLAG (DYKDDDDK); (N); made in house; host or cells: Sf-21 insect cells (BacPAK baculovirus system); used as a membrane preparation
T1 sequence (Q96PD7 1-388): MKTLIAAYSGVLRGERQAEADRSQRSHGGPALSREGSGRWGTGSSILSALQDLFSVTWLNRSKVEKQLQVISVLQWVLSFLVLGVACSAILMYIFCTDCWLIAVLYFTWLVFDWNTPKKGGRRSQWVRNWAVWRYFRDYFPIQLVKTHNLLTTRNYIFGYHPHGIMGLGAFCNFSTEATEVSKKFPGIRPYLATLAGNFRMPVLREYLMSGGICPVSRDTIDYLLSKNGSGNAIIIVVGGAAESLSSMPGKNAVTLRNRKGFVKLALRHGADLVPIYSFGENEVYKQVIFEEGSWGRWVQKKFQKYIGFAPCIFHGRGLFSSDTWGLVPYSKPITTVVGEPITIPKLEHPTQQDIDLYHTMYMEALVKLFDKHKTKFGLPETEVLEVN
In words: Measurement of inhibitory effect against DGAT2 enzyme activity (SPA, Phospholipid FlashPlate, [14C]-TG production). Type of assay: biochemical. Particulars: concentration inhibiting [14C]-labeled triacyl glycerol (TG) production by 50%; 2 μg DGAT2-membrane protein from Sf-21 cells, 37° C. Here is the method: Experimental Example: Measurement of Inhibitory Effect Against DGAT2 Enzyme Activity
In order to prepare the pBacPAK9-DGAT2, which is DGAT2 expression vector, the human DGAT2 gene amplified by polymerase chain reaction (PCR) was cloned into the EcoR1 and Xho1 sites of the pBacPAK9 (clonctech) vector. The nucleotide sequence of the primers used in PCR was the forward primer 5′ […] and the reverse primer 5′ […]. The composition of the reaction solution was to contain 50 ng of cDNA clone (OriGene), 200 μM of dATP, dCTP, dTTP, dGTP, 200 nM of each primer, 1 unit of Tag DNA Polymerase (Toyobo), 1×PCR buffer, and the final volume was adjusted to 20 μl. The reaction conditions were denatured at 95° C. for 5 minutes, followed by 30 times of 94° C. for 20 seconds, 60° C. for 20 seconds, and 72° C. for 90 seconds, followed by further reaction at 72° C. for 7 minutes.
Recombinant human DGAT2 protein was expressed in Sf-21 cells, which are insect cells, by using the BacPack baculovirus expression system (Clontech). The brief manufacturing process is as follows. First, the pBacPAK9-DGAT2 expression vector was transfected with BacPAK6 virus DNA (Bsu36I digest) into sf21 cells using Bacfectin to prepare a recombinant DGAT2 expressing baculovirus. The thus prepared baculovirus was infected with Sf-21 cells at 10 MOI (multiplicity of infection), and after 72 hours, infected insect cells were collected and membrane proteins were isolated. For membrane protein separation, the cell pellet was dissolved in a sucrose solution containing 250 mM sucrose, 10 mM Tris (pH 7.4), and 1 mM ethylenediamine-tetraacetic acid (EDTA), and then homogenized by using a dounce homogenizer, and the supernatant was taken by centrifuging at 600×g for 15 minutes, and centrifuged at 100,000×g for 1 hour to discard the supernatant, and the remaining pellet was resuspended in 20 mM HEPES buffer (pH 7.4). The prepared DGAT2 overexpressing membrane protein was dispensed in 100 μl and stored at −80° C. until use. Protein concentration was quantified by using the BCA Protein Assay Kit (Thermo Scientific).
In vitro DGAT2 analysis was performed using a Phospholipid Flash Plate (PerkinElmer) based on the principle of SPA (Scintillation Proximity Assay). First, DGAT2 inhibition compounds serially diluted 5 times from 3 nM to 10 μM (final concentration, 1% DMSO) were mixed in a buffer solution containing 2 μg DGAT2-membrane protein and 20 mM HEPES, 20 mM MgCl2, 1 mg/mL BSA, 50 μM 1,2 sn-oleoyl glycerol (Sigma), put in a 96-well flash plate (FlashPlate) and reacted at 37° C. for 20 minutes, and then 1 μM [14C] ole oil CoA (PerkinElmer, NEC651050UC) was added to be a final volume of 100 μL and further reacted at 37° C. for 15 minutes. After the enzymatic reaction was completed, 100 μL of isopropanol was added, the plate was sealed with a film, and the plate was shaken slowly in a plate shaker. The next day, the amplified scintillation signal (cpm) in Topcounter (Packard) was measured to measure the degree of production of [14C]-labeled triacyl glycerol (TG) as a reaction product. The measured value when the compound was not treated was used as a positive control, and the measured value of the compound treated group was calculated as a relative % to measure the inhibition effect of the compound on TG production.
As to `CCOc1ccccc1O[C@@H]1CCCN(c2cncc(NC(=O)Nc3cc(C(F)(F)F)cc(C(F)(F)F)c3)n2)C1` [Example 1, (R)-1-(3,5-bis(trifluoromethyl)phenyl)-3-(6-(3-(2-ethoxyphenoxy)piperidin-1-yl)pyrazin-2-yl)urea], the negative-log IC50 (pIC50) was 7.35.

Consider `CCOc1ccccc1O[C@@H]1CCCN(c2cncc(NC(=O)N[C@@H](Cc3ccccc3)C(=O)O)n2)C1` [Example 2, ((6-((R)-3-(2-ethoxyphenoxy)piperidin-1-yl)pyrazin-2-yl)carbamoyl)-L-phenylalanine], for which the negative logarithm of the IC50 (pIC50) was 4.80. Turning to `CCOc1ccccc1O[C@@H]1CCCN(c2cncc(NC(=O)N3CCOCC3)n2)C1` [Example 3, (R)—N-(6-(3-(2-ethoxyphenoxy)piperidin-1-yl)pyrazin-2-yl)morpholine-4-carboxamide], the negative logarithm of the IC50 (pIC50) is 5.64.

Regarding `CCOc1ccccc1O[C@@H]1CCCN(c2cncc(NC(=O)N3CCCC3)n2)C1` [Example 4, (R)—N-(6-(3-(2-ethoxyphenoxy)piperidin-1-yl)pyrazin-2-yl)pyrrolidine-1-carboxamide], the negative logarithm of the IC50 (pIC50) was 5.80.

Turning to `CCOc1ccccc1O[C@@H]1CCCN(c2cncc(NC(=O)N3CCC(C(=O)O)C3)n2)C1` (stereo partly drawn) [Example 5, 1-((6-((R)-3-(2-ethoxyphenoxy)piperidin-1-yl)pyrazin-2-yl)carbamoyl)pyrrolidine-3-carboxylic acid], the negative-log IC50 (pIC50) was 4.29.

Consider `CCOc1ccccc1O[C@@H]1CCCN(c2cncc(NC(=O)c3ccccc3)n2)C1` [Example 6, (R)—N-(6-(3-(2-ethoxyphenoxy)piperidin-1-yl)pyrazin-2-yl)benzamide], for which the negative-log IC50 (pIC50) was 7.28.

On to `CCOc1ccccc1O[C@@H]1CCCN(c2cncc(NC(=O)c3ccc(Cl)cc3)n2)C1` [Example 7, (R)-4-chloro-N-(6-(3-(2-ethoxyphenoxy)piperidin-1-yl)pyrazin-2-yl)benzamide], for which the negative-log IC50 (pIC50) is 7.35.

On to `CCOc1ccccc1O[C@@H]1CCCN(c2cncc(NC(=O)c3cccc(OC)c3)n2)C1` [Example 8, (R)—N-(6-(3-(2-ethoxyphenoxy)piperidin-1-yl)pyrazin-2-yl)-3-methoxybenzamide], for which the negative-log IC50 (pIC50) was 6.64. For `CCOc1ccccc1O[C@@H]1CCCN(c2cncc(NC(=O)c3ccc(OC)cc3)n2)C1` [Example 9, (R)—N-(6-(3-(2-ethoxyphenoxy)piperidin-1-yl)pyrazin-2-yl)-4-methoxybenzamide] the value was 7.05; for `CCOc1ccccc1O[C@@H]1CCCN(c2cncc(NC(=O)c3ccc([N+](=O)[O-])cc3)n2)C1` [Example 10, (R)—N-(6-(3-(2-ethoxyphenoxy)piperidin-1-yl)pyrazin-2-yl)-4-nitrobenzamide], 7.72; for `CCOc1ccccc1O[C@@H]1CCCN(c2cncc(NC(=O)c3ccccc3C(=O)O)n2)C1` [Example 11, (R)-2-((6-(3-(2-ethoxyphenoxy)piperidin-1-yl)pyrazin-2-yl)carbamoyl)benzoic acid], 4.80. On to `CCOc1ccccc1O[C@@H]1CCCN(c2cncc(NC(=O)c3ccc(CC(=O)O)cc3)n2)C1` [Example 12, (R)-2-(4-((6-(3-(2-ethoxyphenoxy)piperidin-1-yl)pyrazin-2-yl)carbamoyl)phenyl)acetic acid], for which the pIC50 is 5.40.

On to `CCOc1ccccc1O[C@@H]1CCCN(c2cncc(NC(=O)c3ccc(C(C)(C)C(=O)O)cc3)n2)C1` [Example 13, (R)-2-(4-((6-(3-(2-ethoxyphenoxy)piperidin-1-yl)pyrazin-2-yl)carbamoyl)phenyl)-2-methylpropanoic acid], for which the negative logarithm of the IC50 (pIC50) was 5.04. For `CCOc1ccccc1O[C@@H]1CCCN(c2cncc(NC(=O)c3ccc(OC(C)(C)C(=O)O)cc3)n2)C1` [Example 14, (R)-2-(4-((6-(3-(2-ethoxyphenoxy)piperidin-1-yl)pyrazin-2-yl)carbamoyl)phenoxy)-2-methylpropanoic acid] the value was 4.92; for `CCOc1ccccc1O[C@@H]1CCCN(c2cncc(NC(=O)C3CCN(S(C)(=O)=O)CC3)n2)C1` [Example 15], 7.60; for `CCOc1ccccc1O[C@@H]1CCCN(c2cncc(NC(=O)C3CCN(C(C)=O)CC3)n2)C1` [Example 16], 6.41. For `CCOc1ccccc1O[C@@H]1CCCN(c2cncc(NC(=O)C3CCN(S(=O)(=O)C(C)C)CC3)n2)C1` [Example 17, (R)—N-(6-(3-(2-ethoxyphenoxy)piperidin-1-yl)pyrazin-2-yl)-1-(isopropylsulfonyl)piperidine-4-carboxamide] the value was 8.00; for `CCOc1ccccc1O[C@@H]1CCCN(c2cncc(NC(=O)C3CCN(c4ncc(CC)cn4)CC3)n2)C1` [Example 18, (R)—N-(6-(3-(2-ethoxyphenoxy)piperidin-1-yl)pyrazin-2-yl)-1-(5-ethylpyrimidin-2-yl)piperidine-4-carboxamide], 8.10; for `CCOc1ccccc1O[C@@H]1CCCN(c2cncc(NC(=O)CCC(=O)O)n2)C1` [Example 19, (R)-4-((6-(3-(2-ethoxyphenoxy)piperidin-1-yl)pyrazin-2-yl)amino)-4-oxobutanoic acid], around 4.82. For `CCOc1ccccc1O[C@@H]1CCCN(c2cncc(NC(=O)C3CCC[C@H]3C(=O)O)n2)C1` (stereo partly drawn) [Example 20, (1R)-2-((6-((R)-3-(2-ethoxyphenoxy)piperidin-1-yl)pyrazin-2-yl)carbamoyl)cyclopentane-1-carboxylic acid] the value was 5.40; for `CCOc1ccccc1O[C@@H]1CCCN(c2cncc(NC(=O)C34CCC(C(=O)O)(CC3)CC4)n2)C1` [Example 21, (R)-4-((6-(3-(2-ethoxyphenoxy)piperidin-1-yl)pyrazin-2-yl)carbamoyl)bicyclo[2.2.2]octane-1-carboxylic acid], 5.32; for `CCOc1ccccc1O[C@@H]1CCCN(c2cncc(NC(=O)CC(C)(C)C(=O)O)n2)C1` [Example 22, (R)-4-((6-(3-(2-ethoxyphenoxy)piperidin-1-yl)pyrazin-2-yl)amino)-2,2-dimethyl-4-oxobutanoic acid], 5.89. With `CCOc1ccccc1O[C@@H]1CCCN(c2cncc(N3C(=O)CC(C)(C)C3=O)n2)C1` [Example 23, (R)-1-(6-(3-(2-ethoxyphenoxy)piperidin-1-yl)pyrazin-2-yl)-3,3-dimethylpyrrolidine-2,5-dione], the negative logarithm of the IC50 (pIC50) was 5.13.

Consider `CCOc1ccccc1O[C@@H]1CCCN(c2cncc(NC(=O)CCC(C)(C)C(=O)O)n2)C1` [Example 24, (R)-5-((6-(3-(2-ethoxyphenoxy)piperidin-1-yl)pyrazin-2-yl)amino)-2,2-dimethyl-5-oxopentanoic acid], for which the negative logarithm of the IC50 (pIC50) was 6.52. For `CCOc1ccccc1O[C@@H]1CCCN(c2cncc(NC(=O)CC(C)(C)CC(=O)O)n2)C1` [Example 25, (R)-5-((6-(3-(2-ethoxyphenoxy)piperidin-1-yl)pyrazin-2-yl)amino)-3,3-dimethyl-5-oxopentanoic acid] the value was 5.74. For `CCOc1ccccc1O[C@@H]1CCCN(c2cncc(NC(=O)Cc3cccc(C(F)(F)F)c3)n2)C1` [Example 26] the value was 7.27.

The record behind these values is patent US12637440B2, “Amide derivative useful as diacylglycerol acyltransferase 2 inhibitor, and use thereof” (LG CHEM, LTD., priority 2019, dated 2026).
